Measurements taken from article PMC9105583, “Stereoselective Synthesis and Anticancer Activity of 2,6-Disubstituted trans-3-Methylidenetetrahydropyran-4-ones” (Materials, 2022).

What was measured:
Format in all cases: cell-based, human
[1] = tested on: HUVEC cells; experiment: MTT assay, metabolic activity (cytotoxicity), normal cell line; details: Homo sapiens, HUVEC, 48 h incubation, mean ± SEM
Description: Metabolic activity by MTT assay
The MTT (3-([…])-2,5-diphenyl tetrazolium bromide) assay was performed to assess the cytotoxicity of the investigated compounds. Briefly, HL-60, MCF-7 and HUVEC cells were seeded in 24-well plates at density of 8 × 10^4/mL. After 24 h incubation, cells were treated with various concentrations of the compounds and incubated for another 24 h or 48 h. Then, the cells were incubated with MTT solution (100 µL; 5 mg/mL in PBS) for 1.5 h and centrifuged. The formazan product was dissolved in DMSO, and the absorption was measured using FlexStation 3 Multi-Mode Microplate Reader (Molecular Devices, LLC, San Jose, CA, USA) at 560 nm. Assays were performed twice in triplicate for each analog.
The cytotoxic activity of the obtained methylidenetetrahydropyran-4-ones was investigated in two cancer cell lines, human promyelocytic leukemia (HL-60) and breast cancer adenocarcinoma (MCF-7), and in healthy umbilical vein endothelial cells (HUVEC), for comparison. An anticancer drug, carboplatin, was used as a reference compound. Metabolic activity of the cells was assessed after 48 h incubation with various concentrations of the analogs (Table 6). Purity of all final compounds was determined on the basis of their ^1H NMR spectra (signal-to-noise ratio and presence of unidentified signals) and was at least 98%, in most cases even over 99%.

[2] = tested on: HL-60 cells; experiment: Cell cycle distribution, DAPI DNA staining and flow cytometry; details: 24 h
Description: (§1) Analysis of apoptosis, DNA damage and cell cycle
(§2) Apoptosis, DNA damage, proliferation and cell cycle kinetics were investigated using the Apoptosis, DNA Damage and Cell Proliferation Kit (BD Biosciences, San Jose, CA, USA) according to the manufacturer’s protocol. Briefly, HL-60 cells (2.0 × 10^5 cells/mL) were seeded in 6-well plates and left to grow for 24 h. Then, the cells were treated with 13d or 13g at IC50 and 2IC50 concentrations. After 24 h incubation, the cells were treated with BrdU solution for 8 h. Then, the cells were collected by centrifugation, fixed and permeabilized. To expose the incorporated BrdU, the cells were incubated with DNase (300 µg/mL in PBS) for 1 h at 37 °C. Afterwards, the cells were stained with fluorescent antibodies, including Anti-BrdU, Anti-Cleaved PARP (Asp214) and Anti-H2AX (pS139) for 20 min at room temperature. Total DNA for cell cycle analysis was stained using DAPI solution (1 µg/mL in staining buffer). Finally, the cells were analyzed by flow cytometry using CytoFLEX (Beckman Coulter, Inc., Brea, CA, USA) and the data analysis was performed with Kaluza Analysis Software v2 (Beckam Coulter, Inc., Brea, CA. USA).
The cell cycle has a critical role in regulation of cell growth, proliferation and division of cells after DNA damage. Therefore, it often serves as a target in cancer therapy development. The cell cycle distribution was investigated using DAPI DNA staining and flow cytometry analysis.

[3] = tested on: γH2AX in HL-60 cells; experiment: γH2AX (H2AX pS139) DNA damage detection, flow cytometry; details: compound at 2IC50, 24 h; control 1.1 ± 0.17%
Description: as §1, §2
DNA damage can be the result of either single- or double-strand breaks (DSBs). DSB are considered the most dangerous, as it is assumed that in metazoan, just one DSB has the potential to trigger cell death. […]

[4] = tested on: HL-60 cells; experiment: Cell morphology by light microscope; details: IC50 and 2IC50, 24 h
Description: HL-60 cells were treated with compound 13d or 13g at IC50 and 2IC50 for 24 h. Then, the cells were examined for morphological changes using a light microscope at 40x magnification and photographed.
HL-60 cells grow in suspension and usually have a roughly spherical shape.

Compound	IC50 [1]	population of cells in G0/G1 phase ([2]; compound at 2IC50 concentration)	cells in the G2/M phase ([2]; compound at 2IC50 concentration, control 14.9 ± 1.37%)	cells with γH2AX generation (H2AX phosphorylation) [3]	morphological changes of the cells [4]	change of G2/M cell population ([2]; not statistically significant)
C=C1C(=O)C[C@H](C(C)C)O[C@H]1C(C)C (relative stereo) [Analog 13d, Trans-2,6-diisopropyl-3-methylidenetetrahydro-4H-pyran-4-one]	24.7 ± 0.65 µM	diminished	24.1 ± 1.40%	38.4 ± 5.89%	induced several morphological changes	–
C=C1C(=O)C[C@H](c2ccccc2)O[C@H]1C(C)C (relative stereo) [Analog 13g, Trans-2-isopropyl-3-methylidene-6-phenyltetrahydro-4H-pyran-4-one]	3.84 ± 0.01 µM	–	–	9.6 ± 2.94%	induced several morphological changes	slight increase
